System: tetanus toxoid
Set-up: species or system ICR mice
Conditions: mouse, in vivo

Which “Anti-Tetanus Toxoid Titer^-1 Fecal Extract d7P2° IgA” value does the source give for `CCCCCCCCCCCCCCCC(=O)OC[C@H](COP(=O)([O-])OCC[N+](C)(C)C)OC(=O)CCCCCCCCCCCCCCC` [DPPC, 1,2-Dipalmitoyl-sn-glycero-3-phosphocholine] here?
Its value is under 50.

And the “Anti-Tetanus Toxoid Titer^-1 Fecal Extract d7P2° IgG” value?
The value was under 50.

And the “Anti-Tetanus Toxoid Titers^-1 IgG1” value?
The value was 25,600.

And the “Anti-Tetanus Toxoid Titers^-1 IgG2a” value?
The value was 1,600.

What about the “Anti-Tetanus Toxoid Titers^-1 IgG2b” value of the same molecule?
Its value is 3,200.

And the “Serum Anti-Tetanus Toxoid Titer^-1 IgA-Specific d10P2°” value?
Its value is 100.

And the “Serum Anti-Tetanus Toxoid Titer^-1 IgA-Specific d10P3°” value?
Its value is 200.

What about the “Serum Anti-Tetanus Toxoid Titer^-1 IgG-Specific d10P2°” value of the same molecule?
Its value is 6,400.

And the “Serum Anti-Tetanus Toxoid Titer^-1 IgG-Specific d10P3°” value?
The value was 6,400.

Reference: patent EP0971739B1 (priority 1997, dated 1998)
